Values after ≈ are worked out from the molar mass of the structure shown.
Experiments:
Staphylococcus aureus [1] = experiment: Antibacterial activity against methicillin-sensitive Staphylococcus aureus ATCC 29213 by agar dilution method; format: functional
Staphylococcus aureus [2] = experiment: Antibacterial activity against methicillin-resistant Staphylococcus aureus 09-13 by agar dilution method; format: functional
[3] = system: Staphylococcus epidermidis; experiment: Antibacterial activity against methicillin-sensitive Staphylococcus epidermidis ATCC 12228 by agar dilution method; format: functional
[4] = system: Staphylococcus epidermidis; experiment: Antibacterial activity against methicillin-resistant Staphylococcus epidermidis 09-3 by agar dilution method; format: functional
Enterococcus faecalis [5] = experiment: Antibacterial activity against vancomycin-sensitive Enterococcus faecalis ATCC 29212 by agar dilution method; format: functional
Enterococcus faecalis [6] = experiment: Antibacterial activity against vancomycin-resistant Enterococcus faecalis 09-9 by agar dilution method; format: functional
Enterococcus faecium [7] = experiment: Antibacterial activity against vancomycin-resistant Enterococcus faecium ATCC 700221 by agar dilution method; format: functional
Escherichia coli [8] = experiment: Antibacterial activity against extended-spectrum beta-lactamase-negative Escherichia coli ATCC 25922 by agar dilution method; format: functional
Escherichia coli [9] = experiment: Antibacterial activity against extended-spectrum beta-lactamase-positive Escherichia coli 09-1 by agar dilution method; format: functional
Klebsiella pneumoniae [10] = experiment: Antibacterial activity against extended-spectrum beta-lactamase-negative Klebsiella pneumoniae 7 by agar dilution method; format: functional
Klebsiella pneumoniae [11] = experiment: Antibacterial activity against extended-spectrum beta-lactamase-positive Klebsiella pneumoniae 09-25 by agar dilution method; format: functional
Klebsiella pneumoniae [12] = experiment: Antibacterial activity against Klebsiella pneumoniae ATCC BAA-2146 expressing NDM-1 by agar dilution method; format: functional
[13] = Cytotoxicity against HEK293T cells after 48 hrs by MTS assay; format: cell-based, HEK-293T; conditions: human
Enterococcus faecium [14] = experiment: Antibacterial activity against vancomycin-sensitive Enterococcus faecium 09-10 by agar dilution method; format: functional
Staphylococcus aureus [15] = experiment: Antibacterial activity against methicillin-resistant Staphylococcus aureus ATCC 33591 by agar dilution method; format: functional
Staphylococcus aureus [16] = experiment: Antibacterial activity against methicillin-sensitive Staphylococcus aureus 15 by agar dilution method; format: functional
Staphylococcus aureus [17] = experiment: Antibacterial activity against methicillin-sensitive Staphylococcus aureus 09-6 by agar dilution method; format: functional
[18] = system: Staphylococcus epidermidis; experiment: Antibacterial activity against methicillin-sensitive Staphylococcus epidermidis 09-9 by agar dilution method; format: functional
Enterococcus faecalis [19] = experiment: Antibacterial activity against vancomycin-resistant Enterococcus faecalis ATCC 51299 by agar dilution method; format: functional
Enterococcus faecalis [20] = experiment: Antibacterial activity against vancomycin-sensitive Enterococcus faecalis 09-8 by agar dilution method; format: functional
Enterococcus faecium [21] = experiment: Antibacterial activity against vancomycin-resistant Enterococcus faecium 05-8 by agar dilution method; format: functional
Escherichia coli [22] = experiment: Antibacterial activity against extended-spectrum beta-lactamase-negative Escherichia coli 1515 by agar dilution method; format: functional
Escherichia coli [23] = experiment: Antibacterial activity against extended-spectrum beta-lactamase-negative Escherichia coli 09-20 by agar dilution method; format: functional
Klebsiella pneumoniae [24] = experiment: Antibacterial activity against extended-spectrum beta-lactamase-positive Klebsiella pneumoniae ATCC 700603 by agar dilution method; format: functional
Klebsiella pneumoniae [25] = experiment: Antibacterial activity against extended-spectrum beta-lactamase-negative Klebsiella pneumoniae 09-8 by agar dilution method; format: functional
Pseudomonas aeruginosa [26] = experiment: Antibacterial activity against Pseudomonas aeruginosa ATCC 27853 by agar dilution method; format: functional
Pseudomonas aeruginosa [27] = experiment: Antibacterial activity against Pseudomonas aeruginosa PAO1 by agar dilution method; format: functional
Pseudomonas aeruginosa [28] = experiment: Antibacterial activity against Pseudomonas aeruginosa 09-14 by agar dilution method; format: functional
[29] = system: Acinetobacter calcoaceticus; experiment: Antibacterial activity against Acinetobacter calcoaceticus ATCC 19606 by agar dilution method; format: functional
Enterobacter cloacae = experiment: Antibacterial activity against Enterobacter cloacae 45301 by agar dilution method; format: functional
Klebsiella aerogenes = experiment: Antibacterial activity against Enterobacter aerogenes 45102 by agar dilution method; format: functional
Serratia marcescens = experiment: Antibacterial activity against Serratia marcescens 41002 by agar dilution method; format: functional
Morganella morganii = experiment: Antibacterial activity against Morganella morganii ATCC 25830 by agar dilution method; format: functional
Providencia rettgeri = experiment: Antibacterial activity against Providencia rettgeri ATCC 31052 by agar dilution method; format: functional
Proteus vulgaris = experiment: Antibacterial activity against Proteus vulgaris ATCC 29905 by agar dilution method; format: functional
Proteus mirabilis = experiment: Antibacterial activity against Proteus mirabilis 09-1 by agar dilution method; format: functional
Salmonella typhi = experiment: Antibacterial activity against Salmonella typhi H901 by agar dilution method; format: functional, Salmonella enterica subsp. enterica serovar Typhi; conditions: Salmonella enterica
Citrobacter freundii = experiment: Antibacterial activity against Citrobacter freundii ATCC 43864 by agar dilution method; format: functional

SMILES	MIC (Staphylococcus aureus [1]) [µg/mL]	MIC (Staphylococcus aureus [2]) [µg/mL]	MIC [3] [µg/mL]	MIC [4] [µg/mL]	MIC (Enterococcus faecalis [5]) [µg/mL]	MIC (Enterococcus faecalis [6]) [µg/mL]	MIC (Enterococcus faecium [7]) [µg/mL]	MIC (Escherichia coli [8]) [µg/mL]	MIC (Escherichia coli [9]) [µg/mL]	MIC (Klebsiella pneumoniae [10]) [µg/mL]	MIC (Klebsiella pneumoniae [11]) [µg/mL]	MIC (Klebsiella pneumoniae [12]) [µg/mL]	CC50 at 48 h [13] [µg/mL]	MIC (Enterococcus faecium [14]) [µg/mL]	MIC (Staphylococcus aureus [15]) [µg/mL]	MIC (Staphylococcus aureus [16]) [µg/mL]	MIC (Staphylococcus aureus [17]) [µg/mL]	MIC [18] [µg/mL]	MIC (Enterococcus faecalis [19]) [µg/mL]	MIC (Enterococcus faecalis [20]) [µg/mL]	further results
CCCNC(=N)c1ccc2cc(-c3ccc(Oc4ccc(-c5cc6ccc(C(=N)NCCC)cc6[nH]5)cc4)cc3)[nH]c2c1	16 (≈ 28.1 µM)	16 (≈ 28.1 µM)	8 (≈ 14.1 µM)	2 (≈ 3.52 µM)	16 (≈ 28.1 µM)	16 (≈ 28.1 µM)	2 to 16 (≈ 3.52 to 28.1 µM)	> 128	> 128	> 128	> 128	> 128	26.2 (≈ 46.1 µM)	16 (≈ 28.1 µM)	16 (≈ 28.1 µM)	8 (≈ 14.1 µM)	16 (≈ 28.1 µM)	8 (≈ 14.1 µM)	16 (≈ 28.1 µM)	16 (≈ 28.1 µM)	MIC (Enterococcus faecium [21]): 16 µg/mL (≈ 28.1 µM); MIC (Escherichia coli [22]): > 128 µg/mL; MIC (Escherichia coli [23]): 128 µg/mL (≈ 225 µM); MIC (Klebsiella pneumoniae [24]): > 128 µg/mL; MIC (Klebsiella pneumoniae [25]): 128 µg/mL (≈ 225 µM); MIC (Pseudomonas aeruginosa [26]): > 128 µg/mL; MIC (Pseudomonas aeruginosa [27]): > 128 µg/mL; MIC (Pseudomonas aeruginosa [28]): > 128 µg/mL; MIC [29]: > 128 µg/mL; MIC (Enterobacter cloacae): > 128 µg/mL; MIC (Klebsiella aerogenes): > 128 µg/mL; MIC (Serratia marcescens): > 128 µg/mL; MIC (Morganella morganii): 128 µg/mL (≈ 225 µM); MIC (Providencia rettgeri): > 128 µg/mL; MIC (Proteus vulgaris): > 128 µg/mL; MIC (Proteus mirabilis): > 128 µg/mL; MIC (Salmonella typhi): 128 µg/mL (≈ 225 µM); MIC (Citrobacter freundii): > 128 µg/mL
N=C(c1ccc2cc(-c3ccc(Oc4ccc(-c5cc6ccc(C(=N)N7CCCC7)cc6[nH]5)cc4)cc3)[nH]c2c1)N1CCCC1	2 (≈ 3.37 µM)	1 (≈ 1.69 µM)	0.5 (≈ 0.844 µM)	1 (≈ 1.69 µM)	8 (≈ 13.5 µM)	32 (≈ 54 µM)	2 (≈ 3.37 µM)	16 (≈ 27 µM)	64 (≈ 108 µM)	64 to 128 (≈ 108 to 216 µM)	64 to 128 (≈ 108 to 216 µM)	64 to 128 (≈ 108 to 216 µM)	3.2 (≈ 5.4 µM)	8 (≈ 13.5 µM)	1 (≈ 1.69 µM)	1 (≈ 1.69 µM)	2 (≈ 3.37 µM)	2 (≈ 3.37 µM)	8 (≈ 13.5 µM)	32 (≈ 54 µM)	MIC (Enterococcus faecium [21]): 8 µg/mL (≈ 13.5 µM); MIC (Escherichia coli [22]): 64 µg/mL (≈ 108 µM); MIC (Escherichia coli [23]): 64 µg/mL (≈ 108 µM); MIC (Klebsiella pneumoniae [24]): 128 µg/mL (≈ 216 µM); MIC (Klebsiella pneumoniae [25]): 64 µg/mL (≈ 108 µM); MIC (Pseudomonas aeruginosa [26]): > 128 µg/mL; MIC (Pseudomonas aeruginosa [27]): > 128 µg/mL; MIC (Pseudomonas aeruginosa [28]): > 128 µg/mL; MIC [29]: > 128 µg/mL; MIC (Enterobacter cloacae): 64 µg/mL (≈ 108 µM); MIC (Klebsiella aerogenes): > 128 µg/mL; MIC (Serratia marcescens): > 128 µg/mL; MIC (Morganella morganii): 16 µg/mL (≈ 27 µM); MIC (Providencia rettgeri): > 128 µg/mL; MIC (Proteus vulgaris): 64 µg/mL (≈ 108 µM); MIC (Proteus mirabilis): 128 µg/mL (≈ 216 µM); MIC (Salmonella typhi): 32 µg/mL (≈ 54 µM); MIC (Citrobacter freundii): 128 µg/mL (≈ 216 µM)
N=C(NC1CCCC1)c1ccc2cc(-c3ccc(Oc4ccc(-c5cc6ccc(C(=N)NC7CCCC7)cc6[nH]5)cc4)cc3)[nH]c2c1	128 (≈ 206 µM)	64 (≈ 103 µM)	8 (≈ 12.9 µM)	16 (≈ 25.8 µM)	128 (≈ 206 µM)	128 (≈ 206 µM)	≥ 128	> 128	> 128	> 128	> 128	> 128	28.9 (≈ 46.6 µM)	≥ 128	64 (≈ 103 µM)	128 (≈ 206 µM)	128 (≈ 206 µM)	8 (≈ 12.9 µM)	128 (≈ 206 µM)	128 (≈ 206 µM)	MIC (Enterococcus faecium [21]): > 128 µg/mL; MIC (Escherichia coli [22]): > 128 µg/mL; MIC (Escherichia coli [23]): > 128 µg/mL; MIC (Klebsiella pneumoniae [24]): > 128 µg/mL; MIC (Klebsiella pneumoniae [25]): > 128 µg/mL; MIC (Pseudomonas aeruginosa [26]): > 128 µg/mL; MIC (Pseudomonas aeruginosa [27]): > 128 µg/mL; MIC (Pseudomonas aeruginosa [28]): > 128 µg/mL; MIC [29]: > 128 µg/mL; MIC (Enterobacter cloacae): > 128 µg/mL; MIC (Klebsiella aerogenes): > 128 µg/mL; MIC (Serratia marcescens): > 128 µg/mL; MIC (Morganella morganii): > 128 µg/mL; MIC (Providencia rettgeri): > 128 µg/mL; MIC (Proteus vulgaris): > 128 µg/mL; MIC (Proteus mirabilis): > 128 µg/mL; MIC (Salmonella typhi): > 128 µg/mL; MIC (Citrobacter freundii): > 128 µg/mL
